“And” between values parts separate entries of the source, which are not always exact repeats. Identical values can stand only once.

One assay has as its system serum uric acid. Nature of the assay: Determination of oral administration: lowering of serum uric acid in mice. The format is in vivo, ICR male mice. The following applies: Mus musculus; ICR male mice, oral, 1 mg/kg, 2 hours after administration, serum; read-out: Activity of lowering uric acid. The procedure: Test compounds suspended in a 5% gum arabic solution was forcibly administered by oral administration (compounds of Ex. No. of Table 2, dose: 1 mg/kg) to ICR male mice (age: about 7 weeks) (one group: 6 mice) by means of an oral probe. 2 hours after the administration, thoracotomy was conducted under etherization to collect blood from the heart, and serum was removed by a conventional process. The serum uric acid was measured by a biochemical automatic analyzer (Flexigem; Electro-Nucleonics, Inc.) by using a uric acid measurement kit (UA reagent; International Reagent) to determine the percentage of the lowering of uric acid. [formula]

The target in a further assay is T1, xanthine oxidase (Bos taurus, UniProt P80457).
T1 construct: purchased Sigma Chemical Company; host or cells: butter milk
T1 sequence (P80457 whole entry): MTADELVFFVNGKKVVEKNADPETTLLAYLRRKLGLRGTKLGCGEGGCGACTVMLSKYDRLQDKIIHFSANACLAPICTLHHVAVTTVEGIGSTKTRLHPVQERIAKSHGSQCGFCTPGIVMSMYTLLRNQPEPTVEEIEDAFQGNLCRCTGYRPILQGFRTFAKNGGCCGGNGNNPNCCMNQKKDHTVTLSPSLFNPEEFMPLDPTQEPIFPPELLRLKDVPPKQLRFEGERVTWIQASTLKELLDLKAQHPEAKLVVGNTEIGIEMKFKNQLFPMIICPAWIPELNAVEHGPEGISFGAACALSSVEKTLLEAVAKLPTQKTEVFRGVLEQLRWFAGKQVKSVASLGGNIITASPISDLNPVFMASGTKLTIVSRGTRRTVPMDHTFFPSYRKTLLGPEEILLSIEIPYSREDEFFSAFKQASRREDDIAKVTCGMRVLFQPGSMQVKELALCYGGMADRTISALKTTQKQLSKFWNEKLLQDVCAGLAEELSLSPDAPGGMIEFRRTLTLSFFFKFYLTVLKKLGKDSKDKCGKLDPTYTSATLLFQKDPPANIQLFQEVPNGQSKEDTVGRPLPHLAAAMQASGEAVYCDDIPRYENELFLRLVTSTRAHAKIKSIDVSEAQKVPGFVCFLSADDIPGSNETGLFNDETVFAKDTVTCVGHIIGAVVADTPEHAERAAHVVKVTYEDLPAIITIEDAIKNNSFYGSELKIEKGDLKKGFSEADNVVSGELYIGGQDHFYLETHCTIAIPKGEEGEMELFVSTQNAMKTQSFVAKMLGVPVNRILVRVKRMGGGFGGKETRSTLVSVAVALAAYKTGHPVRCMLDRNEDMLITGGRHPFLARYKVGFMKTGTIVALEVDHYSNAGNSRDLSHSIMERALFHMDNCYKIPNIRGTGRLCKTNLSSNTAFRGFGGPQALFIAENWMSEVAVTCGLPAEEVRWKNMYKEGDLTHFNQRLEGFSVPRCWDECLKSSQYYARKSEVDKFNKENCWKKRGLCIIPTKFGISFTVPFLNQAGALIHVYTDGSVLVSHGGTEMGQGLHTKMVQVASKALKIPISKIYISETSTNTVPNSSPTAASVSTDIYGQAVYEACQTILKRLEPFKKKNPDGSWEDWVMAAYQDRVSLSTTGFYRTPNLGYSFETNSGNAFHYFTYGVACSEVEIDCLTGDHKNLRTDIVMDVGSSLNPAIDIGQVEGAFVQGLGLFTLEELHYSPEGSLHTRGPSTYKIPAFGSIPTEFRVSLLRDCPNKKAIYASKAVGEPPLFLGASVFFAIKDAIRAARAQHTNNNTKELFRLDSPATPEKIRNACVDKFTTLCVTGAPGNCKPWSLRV
Nature of the assay: In vitro determination of xanthine oxidase (XOD) inhibition. The following applies: xanthine oxidase from butter milk, xanthine substrate, pH 7.4, 37° C. The format is biochemical. The method, then:
(1) Preparation of test compounds:
Test compounds (compounds of Ex. No. listed in Table 1) were dissolved in dimethylsulfoxide and diluted with a 50 mM phosphate buffer to prepare aqueous solutions respectively having predetermined concentrations.
The inhibition rate was determined by the following equation: [formula]
The inhibition (%) was determined on each test compound prepared according to (1), and the IC50 value on the xanthine oxidase (XOD) inhibition was calculated from the value of inhibition.

The test system of another assay is interleukin 1 production. Briefly: Interleukin 1 production inhibitory activity (LPS, abdominal exuded macrophage, ELISA). The assay is classed as cell-based, BALB/c mouse. Particulars: 10^-6 M, 1 μg/ml LPS, 24 hours, mouse macrophage. The method, then: 1 ml of a 5% oyster glycogen solution was intra-abdominally administered to a BALB/c mouse (male, 8 weeks in age), and 4 days after the administration, the infiltrated abdominal exuded cells were adhered to a plastic dish for 2 hours, and 1 μg/ml of LPS was allowed to act on macrophage (1×10^6 cells). Interleukin 1 extricated on the supernatant in 24 hours was measured by an ELISA technique. The test compound (compounds of Ex. No. described in Table 3) was prepared so as to have a concentration of 10^-6 M, and the interleukin 1 production inhibitory activity was, expressed in terms of the percentage inhibition based on the amount of production of the control.
In general terms: An ELISA detects its analyte on a solid surface through an enzyme-linked reagent.

For another assay, the system named is collagen arthritis. Nature of the assay: Collagen arthritis inhibitory activity (bovine II type collagen in rats). The format is in vivo, Lewis rats. The following applies: 6 weeks; for Swelling: 5 times per week, right foot volume increase, control 45.5 ± 5.1; for Antibody titer of anti-collagen: serum, ELISA, control 2.04 ± 0.36. The method, then: An emulsion comprising a bovine II type collagen and incomplete Freund's adjuvant in a proportion of 1:1 were intradermally injected to Lewis rats (male, about 6 weeks in age) (one group: 8 […]) at the region of the back so that the amount of antigen was 2 mg/rat, thereby inducing arthritis. The compound of Ex. No. 35 was suspended in a 5% gum arabic solution, and orally administered 5 times per week in two groups of 10 mg/kg and 50 mg/kg from the sensitized day. Only the gum arabic solution was administered to the control. Then 6 weeks after the sensitization, the percentage increase in the volume of the right foot was measured and expressed in terms of the percentage swelling, and the anti-collagen antibody titer of the serum was measured by the ELISA technique.

The IC50 is the concentration needed to halve the response being measured. As a reminder, the inhibition is the percentage by which the read-out fell short of the control. `Cc1nc(-c2cccc(C(F)(F)F)c2)sc1C(=O)O` [Example 5, 4-Methyl-2-(3-trifluoromethylphenyl)-5-thiazolecarboxylic acid]: in the assay with serum uric acid, the inhibition in vivo at 1 mg/kg was 37%. The IC50 against xanthine oxidase is 0.63 nM. At 1 µM the inhibition with interleukin 1 production was 60%.

Molecule `Cc1nc(-c2ccc(C(F)(F)F)cc2)sc1C(=O)O` [Example 6, 4-Methyl-2-(4-trifluoromethylphenyl)-5-thiazolecarboxylic acid] registered an IC50 against xanthine oxidase of 310 nM. In addition, the inhibition at 1 µM with interleukin 1 production came out at 38%.

Molecule `Cc1nc(-c2ccc(OCC3CCCCC3)cc2)sc1C(=O)O` [Example 7, 2-(4-Cyclohexylmethyloxyphenyl)-4-methyl-5-thiazolecarboxylic acid] registered an IC50 on xanthine oxidase of 46 nM. Further, 1 µM produced 39% inhibition with interleukin 1 production.

`Cc1nc(-c2ccc(OCC(=O)O)cc2)sc1C(=O)O` [Example 11, 2-(4-Carboxymethyloxyphenyl)-4-methyl-5-thiazolecarboxylic acid] gave an IC50 against xanthine oxidase of 77 nM. In addition, at 1 µM the inhibition in the assay with interleukin 1 production was 23%.

Take `Cc1nc(-c2ccc(OCCCCC(=O)O)cc2)sc1C(=O)O` [Example 12, 2-(4-(4-Carboxybutyloxy)phenyl)-4-methyl-5-thiazolecarboxylic acid]: the IC50 against xanthine oxidase was 12 nM. In the assay with interleukin 1 production, this molecule registered an inhibition at 1 µM of 42%.

In turn, `Cc1nc(-c2ccc(C(=O)O)cc2)sc1C(=O)O` [Example 14, 2-(4-Carboxyphenyl)-4-methyl-5-thiazolecarboxylic acid] had an IC50 against xanthine oxidase of 3.2 nM. In the assay with interleukin 1 production, this molecule had an inhibition at 1 µM of 35%.

On xanthine oxidase, `Cc1nc(-c2cccc(C(=O)Nc3ccc(Cl)cc3)c2)sc1C(=O)O` [Example 15, 2-(3-(4-chlorophenylcarbamoyl)phenyl)-4-methyl-5-thiazolecarboxylic acid] had an IC50 of 150 nM. The inhibition at 1 µM with interleukin 1 production came out at 38%.

`Cc1nc(-c2ccc(C(=O)c3ccccc3)cc2)sc1C(=O)O` [Example 20, 2-(4-Benzoylphenyl)-4-methyl-5-thiazolecarboxylic acid]: the inhibition in vivo at 1 mg/kg in the assay on serum uric acid is 18%. Also, the Swelling is recorded as 25.4 ± 5.3% with collagen arthritis (10 mg/kg oral, *P < 0.05) and 21.2 ± 4.2% in the assay on collagen arthritis (50 mg/kg oral, **P < 0.01). Also, the “Antibody titer of anti-collagen” value in the assay with collagen arthritis (10 mg/kg oral) is listed as 1.88 ± 0.20 μU/ml; with collagen arthritis (50 mg/kg oral), 1.68 ± 0.32 μU/ml. In addition, at xanthine oxidase, the IC50 was 6 nM and 6.2 nM. The molecule further registered an inhibition at 1 µM in the assay with interleukin 1 production of 65%.

On xanthine oxidase, `CC(C)Oc1ccc(-c2nc(O)c(C(=O)O)s2)cc1` [Example 22, 4-Hydroxy-2-(4-isopropoxyphenyl)-5-thiazolecarboxylic acid] came in with an IC50 of 45 nM. For the same molecule, at 1 µM the inhibition with interleukin 1 production was 45%.

For `Cc1nc(-c2cc(C(F)(F)F)cc(C(F)(F)F)c2)sc1C(=O)O` [Example 26, 2-(3,5-Bistrifluoromethylphenyl)-4-methyl-5-thiazolecarboxylic acid], the inhibition in vivo at 1 mg/kg in the assay with serum uric acid was 63%. On xanthine oxidase, this molecule yielded an IC50 of 5.7 nM. The same molecule yielded an inhibition at 1 µM in the assay with interleukin 1 production of 57%.

For `Cc1nc(-c2cc(Cl)cc(Cl)c2)sc1C(=O)O` [Example 27, 2-(3,5-Dichlorophenyl)-4-methyl-5-thiazolecarboxylic acid], half-maximal inhibition at xanthine oxidase (IC50) required 10 nM. Moreover, the inhibition at 1 µM in the assay on interleukin 1 production was 43%.

The molecule `Cc1nc(-c2cc(Cl)c(O)c(Cl)c2)sc1C(=O)O` [Example 28, 2-(3,5-Dichloro-4-hydroxyphenyl)-4-methyl-5-thiazolecarboxylic acid] showed an IC50 at xanthine oxidase of 26 nM. For the same molecule, in the assay on interleukin 1 production, 1 µM produced 52% inhibition.

In the case of `Cc1nc(-c2ccc(OCCC(C)C)c([N+](=O)[O-])c2)sc1C(=O)O` [Example 40, 2-(4-Isopentyloxy-3-nitrophenyl)-4-methyl-5-thiazolecarboxylic acid], the inhibition in vivo at 1 mg/kg in the assay on serum uric acid was 85%. Besides, the IC50 at xanthine oxidase turned out to be 0.67 nM. This molecule also came in with an inhibition at 1 µM in the assay on interleukin 1 production of 36%.

On to `Cc1nc(-c2ccc(OCC(C)(C)C)c([N+](=O)[O-])c2)sc1C(=O)O` [Example 43, 2-(4-neopentyloxy-3-nitrophenyl)-4-methyl-5-thiazolecarboxylic acid], for which the inhibition in vivo at 1 mg/kg with serum uric acid worked out at 85%. On xanthine oxidase, this molecule returned an IC50 of 0.64 nM. Also, 1 µM produced 39% inhibition with interleukin 1 production.

For the molecule `Cc1nc(-c2ccc(N3CCCCC3)c([N+](=O)[O-])c2)sc1C(=O)O` [Example 44, 4-methyl-2-(3-nitro-4-piperidinophenyl)-5-thiazolecarboxylic acid], the inhibition in vivo at 1 mg/kg in the assay with serum uric acid came out at 83%. Besides, at xanthine oxidase, the IC50 came out at 1.6 nM. Also, the inhibition at 1 µM in the assay with interleukin 1 production worked out at 22%.

For the molecule `Cc1nc(-c2ccc(N3CCOCC3)c([N+](=O)[O-])c2)sc1C(=O)O` [Example 45, 4-methyl-2(4-morpholino-3-nitrophenyl)-5-thiazolecarboxylic acid], the inhibition in vivo at 1 mg/kg with serum uric acid was 88%. Besides, the IC50 on xanthine oxidase came out at 1.8 nM. The molecule also registered an inhibition at 1 µM in the assay on interleukin 1 production of 18%.

`CCOc1ccc(-c2nc(C)c(C(=O)O)s2)cc1Cl` [Example 49, 2-(3-chloro-4-ethoxyphenyl)-4-methyl-5-thiazolecarboxylic acid]: the inhibition in vivo at 1 mg/kg in the assay with serum uric acid was found to be 35%. Moreover, the IC50 against xanthine oxidase is 2.3 nM. In addition, testing at 1 µM in the assay with interleukin 1 production gave an inhibition of 48%.

Consider `Cc1nc(-c2ccc(OC(C)C)c(Cl)c2)sc1C(=O)O` [Example 50, 2-(3-Chloro-4-isopropoxyphenyl)-4-methyl-5-thiazolecarboxylic acid], for which the inhibition in vivo at 1 mg/kg in the assay on serum uric acid amounted to 20%. This molecule also registered an IC50 against xanthine oxidase of 2.4 nM. The inhibition at 1 µM in the assay with interleukin 1 production turned out to be 42%.

In the case of `Cc1nc(-c2ccc(OCCC(C)C)c(Cl)c2)sc1C(=O)O` [Example 52, 2-(3-Chloro-4-isopentyloxyphenyl)-4-methyl-5-thiazolecarboxylic acid], the inhibition in vivo at 1 mg/kg in the assay with serum uric acid was determined as 47%. Also, on xanthine oxidase, the IC50 was 2.7 nM. This molecule also showed an inhibition at 1 µM in the assay with interleukin 1 production of 33%.

Take `Cc1nc(-c2ccc(OCc3ccc(F)cc3)c(Cl)c2)sc1C(=O)O` [Example 58, 2-(3-Chloro-4-(4-fluorobenzyloxy)phenyl)-4-methyl-5-thiazolecarboxylic acid]: the inhibition in vivo at 1 mg/kg with serum uric acid worked out at 18%. This molecule also returned an IC50 at xanthine oxidase of 3.4 nM. For the same molecule, 1 µM produced 19% inhibition in the assay on interleukin 1 production.

In the case of `CCOCCOc1ccc(-c2nc(C)c(C(=O)O)s2)cc1Br` [Example 64, 2-(3-Bromo-4-(2-ethoxyethyloxy)phenyl)-4-methyl-5-thiazolecarboxylic acid], the inhibition in vivo at 1 mg/kg in the assay with serum uric acid came to 25%. This molecule showed an IC50 on xanthine oxidase of 2.9 nM. The same molecule registered an inhibition at 1 µM in the assay with interleukin 1 production of 28%.

On to `Cc1nc(-c2ccc(OCC(C)C)c(F)c2)sc1C(=O)O` [Example 67, 2-(3-fluoro-4-isobutyloxyphenyl)-4-methyl-5-thiazolecarboxylic acid], for which the inhibition in vivo at 1 mg/kg in the assay with serum uric acid amounted to 50%. On xanthine oxidase, the IC50 is 1.5 nM. Further, the inhibition at 1 µM in the assay with interleukin 1 production was 48%.

As to `Cc1ccc(C(=O)c2ccc(-c3nc(C)c(C(=O)O)s3)cc2)cc1` [Example 74, 4-Methyl-2-(4-(4-methylbenzoyl)phenyl)-5-thiazolecarboxylic acid], the inhibition in vivo at 1 mg/kg in the assay on serum uric acid came out at 39%. For the same molecule, the IC50 against xanthine oxidase is 4.8 nM. Further, the inhibition at 1 µM in the assay with interleukin 1 production was determined as 52%.

In the case of `Cc1ccc(C(=O)c2ccc(-c3nc(C)c(C(=O)O)s3)cc2)c(C)c1` [Example 75, 2-(4-(2,4-Dimethylbenzoyl)phenyl)-4-methyl-5-thiazolecarboxylic acid], the inhibition in vivo at 1 mg/kg with serum uric acid amounted to 33%. The molecule further returned an IC50 against xanthine oxidase of 0.83 nM. The molecule also came in with an inhibition at 1 µM in the assay with interleukin 1 production of 48%.

The values are drawn from patent US5614520A, “2-arylthiazole derivatives and pharmaceutical composition thereof” (priority 1990, dated 1997).
